Source: US7749730B2, “High throughput screening assay for the TRPM5 ion channel” (Redpoint Bio Corporation, priority 2005, dated 2010)

Experiments:
Assay type in all cases: cell-based
[1] = test system: agonist-induced Ca++ flux response; experiment: Ca++ flux assay (Calcium 3 Dye)
Protocol: (§1) The ideal blocker would block TRPM5 but not other channels. The TRPM5 assay is conducted as described in Example 3, utilizing a membrane potential dye. A test compound is added, and the cells are then stimulated with ATP to trigger the channel, leading to a dye response. The process is shown schematically in FIG. 7. The KCl counterscreen is performed as described in Example 3, with identical cells, pretreated with the same compound, but the stimulus was 20 mM KCl, not ATP. KCl stimulated and unstimulated responses are used as controls. […] An additional specificity assay utilizes a Ca++ flux dye (Calcium 3 Dye, Part No. R8091) to determine whether or not the compound interferes with agonist-induced Ca++ flux response.

[2] = target: T1, TRPM5 (Homo sapiens, UniProt Q9NZQ8); experiment: TRPM5 membrane potential dye assay (FLIPR), cells stimulated with ATP; parameters: the full length hTRPM5 was amplified by PCR using GC Melt; expressed in transfected cells; settings: ATP stimulus
T1 sequence (Q9NZQ8 1-1165): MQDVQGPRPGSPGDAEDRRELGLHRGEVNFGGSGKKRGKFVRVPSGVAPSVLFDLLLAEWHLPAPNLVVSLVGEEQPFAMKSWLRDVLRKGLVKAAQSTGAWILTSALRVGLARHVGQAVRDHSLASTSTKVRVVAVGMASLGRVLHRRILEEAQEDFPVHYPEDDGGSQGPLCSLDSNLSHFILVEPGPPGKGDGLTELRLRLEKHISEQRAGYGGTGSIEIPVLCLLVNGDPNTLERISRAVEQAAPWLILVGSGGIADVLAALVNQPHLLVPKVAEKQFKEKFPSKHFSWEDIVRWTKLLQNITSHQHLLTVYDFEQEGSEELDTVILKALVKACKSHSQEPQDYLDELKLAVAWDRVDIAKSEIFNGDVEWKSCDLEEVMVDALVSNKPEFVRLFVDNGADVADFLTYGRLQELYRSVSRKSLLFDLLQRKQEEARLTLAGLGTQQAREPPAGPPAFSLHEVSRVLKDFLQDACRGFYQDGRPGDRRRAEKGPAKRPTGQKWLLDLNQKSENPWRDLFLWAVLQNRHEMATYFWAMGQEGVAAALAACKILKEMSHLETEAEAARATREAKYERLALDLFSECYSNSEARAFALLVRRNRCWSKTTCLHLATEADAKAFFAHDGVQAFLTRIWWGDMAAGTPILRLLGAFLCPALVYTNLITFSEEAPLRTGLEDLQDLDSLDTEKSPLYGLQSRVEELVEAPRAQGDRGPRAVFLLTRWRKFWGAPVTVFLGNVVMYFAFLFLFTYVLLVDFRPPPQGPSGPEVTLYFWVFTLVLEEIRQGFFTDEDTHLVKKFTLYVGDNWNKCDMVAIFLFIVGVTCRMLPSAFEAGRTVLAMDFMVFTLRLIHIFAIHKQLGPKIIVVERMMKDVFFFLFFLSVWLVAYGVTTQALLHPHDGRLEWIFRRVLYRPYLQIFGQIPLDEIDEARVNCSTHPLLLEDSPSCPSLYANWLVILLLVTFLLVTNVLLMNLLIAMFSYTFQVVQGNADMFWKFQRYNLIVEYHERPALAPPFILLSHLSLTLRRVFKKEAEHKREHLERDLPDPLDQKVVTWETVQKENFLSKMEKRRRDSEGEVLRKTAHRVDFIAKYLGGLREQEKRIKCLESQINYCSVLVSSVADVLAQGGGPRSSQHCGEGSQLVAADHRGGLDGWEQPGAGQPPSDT
Protocol: TRPM5 stably expressed in HEK cells was analyzed for its ability to respond to different concentrations of several GPCR agonists. The assay was performed on a FLIPR® using the excitation 510-545 nm and emission 565-625 nm filter sets. Assay plates containing stably expressing HEK cells were loaded with 1× Membrane Potential Assay Dye Red (Molecular Devices) for one hour in a 37° C. and 5% CO2 incubator. The plates were then removed from the incubator and equilibrated to room temperature for 15 minutes before reading on the FLIPR®. The plates were read on the FLIPR® for a total of 3 minutes. Baseline fluorescence was obtained on the FLIPR® for 10 seconds followed by addition of each agonist by the FLIPR® and read for an additional 2 minutes and 50 seconds. […] The values on the graph represent the difference in the maximum minus the minimum fluorescence upon agonist addition. Individual clones are represented by clone number, while the pool of clones represents the sum of all cells that were resistant to selection. In all cases, clone 1 gave the strongest response to all 3 agonists (ATP, carbachol, and thrombin peptide, FIGS. 5A-5C, respectively). Clone 5 and pooled clones generated a lower response in comparison to clone 1. However, both the clone 5 and pool responses were a minimum 3-fold higher than fluorescence in non-transfected cells.
Specificity of potential activating compounds may be identified using suboptimal concentrations of agents that increase intracellular calcium levels. In this type of assay, rather than using a high concentration of, for example carbachol, a reduced concentration is added to TRPM5-expressing cells with or without an additional test compound. Enhancers of TRPM5 activity are those test compounds that increase the fluorescent intensity in reduced carbachol treated cells, to the level seen in cells treated to a high dose.
A carbachol dose response curve was generated for the TRPM5 expressing cells so that the suboptimal concentration range could be determined. […]

[3] = test system: KCl response; experiment: KCl counterscreen (membrane potential dye, 20 mM KCl stimulus); settings: TRPM5-expressing cells
Protocol: KCl activates a number of ion channels, but not TRPM5. Therefore, KCl can be used as a counterscreen to identify modulating compounds specific for TRPM5.
as §1

[4] = target: T1, TRPM5; experiment: Membrane potential assay in transiently TRPM5-transfected HEK 293 cells (FLEXstation); parameters: the full length hTRPM5 was amplified by PCR using GC Melt; expressed in transfected cells; host or cells: HEK 293 (ATCC), transient transfection with Lipofectamine 2000; settings: for TRPM5 response to agonist (relative fluorescence): within the first 30 seconds of agonist addition, FMP dye
Protocol: As described in greater detail below, HEK 293 cells, transiently transfected with a plasmid bearing the human TRPM5 gene, were used to develop the high throughput screening assay. Indirect measurement of the changes in Na^+ ions within the HEK 293 cells were made using a FMP dye and stimulation of the cells using calcium activating agents.
1.0×10^6 HEK 293 cells (ATCC) were plated in each well of a 6-well tissue culture dish overnight. The following day, cells were transfected with 4 μg of a pcDNA3.2 vector containing TRPM5 cDNA and 8 μl of Lipofectamine 2000 (Invitrogen), according to the manufacturer's protocol, and incubated overnight. The following day, transfected cells were trypsinized and seeded into 96-well black, clear bottom, poly-D-lysine plates (Corning) at a density of 70,000 cells/well in a 100 μl volume and incubated in a 37° C./5% CO2 incubator overnight.
Once the expression of TRPM5 was confirmed in the HEK cells, 100 μl of the Blue or Red FMP dye (Molecular Devices) was added to each well of plates seeded with the transiently transfected cells. The plate was then incubated in a 37° C./5% CO2 incubator for 1 hour. The plate was read in a FLEXStation microplate reader (Molecular Devices) with an excitation of 530 nm and an emission of 565 nm. The fluorescence was monitored for 3 minutes upon exposure of the cells to a calcium activating agent (carbachol, thrombin peptide or ATP).

| TRPM5 response to agonist (relative fluorescence) [4] | Compound | effect on Ca++ flux response [1] | inhibition of the TRPM5 response [2] | effect on KCl response [3] | fluorescence over background ([4]; versus mock treated cells) |
| --- | --- | --- | --- | --- | --- |
|  | C=CCOc1ccc(/C=N/NC(=O)CSCc2cccc(Br)c2)cc1OC [compound 1] | does not alter KCl or Ca++ responses | dose responsive inhibition of the TRPM5 response | does not alter KCl or Ca++ responses |  |
| strong spike in relative fluorescence | Nc1ncnc2c1ncn2[C@@H]1O[C@H](COP(=O)(O)OP(=O)(O)OP(=O)(O)O)[C@@H](O)[C@H]1O [ATP, adenosine triphosphate] |  |  |  |  |
|  | NC1C(=O)/C(=C\c2cc([N+](=O)[O-])cc([N+](=O)[O-])c2O)SC1=S (centres unmarked) [Compound F001344,A3] |  | inhibits TRPM5 | inhibits TRPM5, but also the KCl responses |  |
|  | O=c1[nH]c(SCc2ccccc2)nc(O)c1C(c1ccccc1)c1ccccc1 [Compound F0013488,C13] | activates the Ca++ flux response | inhibits TRPM5 |  |  |
| strong spike in relative fluorescence | C[N+](C)(C)CCOC(N)=O [carbachol] |  |  |  |  |

| Compound | TRPM5 response to agonist (relative fluorescence) [4] | effect on Ca++ flux response [1] | inhibition of the TRPM5 response [2] | effect on KCl response [3] | fluorescence over background ([4]; versus mock treated cells) |
| --- | --- | --- | --- | --- | --- |
| thrombin | strong spike in relative fluorescence |  |  |  | greater than 4 fold |
